Source: patent US9540343B2 (Gilead Sciences, Inc., priority 2011, dated 2017)

Key:
[1] = system: HIV-IIIb; test: Test A: Antiviral assay in MT4 cells; type: cell-based, HIV-1; details: Human immunodeficiency virus 1, IIIB, MT4, 120 h, read-out: % inhibition at 2 μM, percent inhibition of virus-induced cell killing, from dose response curve at 2 uM drug; MT-4 cells infected with HIV-IIIb, 5 days, CellTiter-Glo
[2] = in vitro
Procedure, shortened: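 Cytoprotection read-out: CellTiter-Glo chemiluminescence after 5 days at 37 °C of HIV-IIIb-infected MT-4 cells (m.o.i. 0.003) with compound in 10-point 3-fold dilutions, quadruplicate, 10% FBS. Cytotoxicity (CC50) measured identically without virus.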

[3] = human, uninfected MT-4 cells, CC50 (nM), same protocol as Test A, CellTiter-Glo

With CCc1c(Br)c(C(F)(F)F)nn1CC(=O)N[C@@H](Cc1cc(F)cc(F)c1)c1ncccc1-c1ccc(F)c(C(N)=O)c1 [Example 58D, (S)-5-(2-(1-(2-(4-bromo-5-ethyl-3-(trifluoromethyl)-1H-pyrazol-1-yl)acetamido)-2-(3,5-difluorophenyl)ethyl)pyridin-3-yl)-2-fluorobenzamide] the inhibition at 2 µM [1] was 14% and the CC50 at 5 days [2, 3] was 10000 nM.
For NC(=O)c1cc(-c2cccnc2[C@H](Cc2cc(F)cc(F)c2)NC(=O)Cc2c[nH]c3ccc(C(F)(F)F)cc23)ccc1F [Example 54G, (S)-5-(2-(2-(3,5-difluorophenyl)-1-(2-(5-(trifluoromethyl)-1H-indol-3-yl)acetamido)ethyl)pyridin-3-yl)-2-fluorobenzamide], the inhibition at 2 µM [1] was 111% and the CC50 at 5 days [2, 3] was 10300 nM.
NC(=O)c1cccc(-c2cncnc2[C@@H](Cc2cc(F)cc(F)c2)NC(=O)Cc2c[nH]c3ccc(O)cc23)c1 [Example 313, (R)-3-(4-(2-(3,5-difluorophenyl)-1-(2-(5-hydroxy-1H-indol-3-yl)acetamido)ethyl)pyrimidin-5-yl)benzamide] gave an inhibition at 2 µM [1] of 14% and a CC50 at 5 days [2, 3] greater than 53200 nM.
NC(=O)c1cc(-c2cccnc2[C@H](Cc2cc(F)cc(F)c2)NC(=O)Cn2ccnc2-c2ccccc2)ccc1F [Example 149, (S)-5-(2-(2-(3,5-difluorophenyl)-1-(2-(2-phenyl-1H-imidazol-1-yl)acetamido)ethyl)pyridin-3-yl)-2-fluorobenzamide] gave an inhibition at 2 µM [1] of 2% and a CC50 at 5 days [2, 3] greater than 53200 nM.
Work on CC(=O)N1Cc2c(C(F)(F)F)nn(CC(=O)N[C@@H](Cc3cc(F)cc(F)c3)c3ncccc3-c3ccc(F)c(C(N)=O)c3)c2C1 [Example 219, (S)-5-(2-(1-(2-(5-acetyl-3-(trifluoromethyl)-5,6-dihydropyrrolo[3,4-c]pyrazol-1(4H)-yl)acetamido)-2-(3,5-difluorophenyl)ethyl)pyridin-3-yl)-2-fluorobenzamide] yielded an inhibition at 2 µM [1] of 1% and a CC50 at 5 days [2, 3] greater than 53200 nM.
With NC(=O)c1cc(-c2cccnc2[C@H](Cc2cc(F)cc(F)c2)NC(=O)Cn2cc(CNC3CC3)c(C(F)(F)F)n2)ccc1F [Example 335, (S)-5-(2-(1-(2-(4-((cyclopropylamino)methyl)-3-(trifluoromethyl)-1H-pyrazol-1-yl)acetamido)-2-(3,5-difluorophenyl)ethyl)pyridin-3-yl)-2-fluorobenzamide] the inhibition at 2 µM [1] was 3% and the CC50 at 5 days [2, 3] was 51100 nM.
With NC(=O)c1cc(-c2cccnc2[C@H](Cc2cc(F)cc(F)c2)NC(=O)Cn2nc(C(F)F)c3c2C(F)(F)CCC3)ccc1F [Example 380, (S)-5-(2-(1-(2-(3-(difluoromethyl)-7,7-difluoro-4,5,6,7-tetrahydro-1H-indazol-1-yl)acetamido)-2-(3,5-difluorophenyl)ethyl)pyridin-3-yl)-2-fluorobenzamide] the inhibition at 2 µM [1] was 97% and the CC50 at 5 days [2, 3] was 18300 nM.
NC(=O)c1cc(-c2cccnc2[C@H](Cc2cc(F)cc(F)c2)NC(=O)Cc2c[nH]c3ccc(O)cc23)ccc1F [Example 41, (S)-5-(2-(2-(3,5-difluorophenyl)-1-(2-(5-hydroxy-1H-indol-3-yl)acetamido)ethyl)pyridin-3-yl)-2-fluorobenzamide] showed an inhibition at 2 µM [1] of 97% and a CC50 at 5 days [2, 3] greater than 53000 nM.
With CCOC(=O)N1CCCC1C(=O)N[C@@H](Cc1cc(F)cc(F)c1)c1ncccc1-c1ccc(F)c(C(N)=O)c1 (stereo partly drawn) [Example 128, ethyl 2-((S)-1-(3-(3-carbamoyl-4-fluorophenyl)pyridin-2-yl)-2-(3,5-difluorophenyl)ethylcarbamoyl)pyrrolidine-1-carboxylate] the inhibition at 2 µM [1] was 7% and the CC50 at 5 days [2, 3] was 23500 nM.
Work on NC(=O)c1cc(-c2cccnc2[C@H](Cc2cc(F)cc(F)c2)NC(=O)COc2ccnc(Cl)c2)ccc1F [Example 332B, (S)-5-(2-(1-(2-(2-chloropyridin-4-yloxy)acetamido)-2-(3,5-difluorophenyl)ethyl)pyridin-3-yl)-2-fluorobenzamide] yielded an inhibition at 2 µM [1] of 2% and a CC50 at 5 days [2, 3] of 40000 nM.
For NC(=O)c1cc(-c2cccnc2[C@H](Cc2cc(F)cc(F)c2)NC(=O)C(CO)c2ccccc2)ccc1F (stereo partly drawn) [Example 578, 5-(2-((1S)-2-(3,5-difluorophenyl)-1-(3-hydroxy-2-phenylpropanamido)ethyl)pyridin-3-yl)-2-fluorobenzamide], the inhibition at 2 µM [1] was 15% and the CC50 at 5 days [2, 3] was greater than 53200 nM.
Cc1cc(-c2cccnc2[C@H](Cc2cc(F)cc(F)c2)NC(=O)Cn2nc(C(F)(F)F)c3c2CCCC3)ccc1F [Example 65, (S)—N-(2-(3,5-difluorophenyl)-1-(3-(4-fluoro-3-methylphenyl)pyridin-2-yl)ethyl)-2-(3-(trifluoromethyl)-4,5,6,7-tetrahydro-1H-indazol-1-yl)acetamide] gave an inhibition at 2 µM [1] of 33% and a CC50 at 5 days [2, 3] of 11100 nM.
O=C(Cn1nc(C(F)(F)F)c2c1CCCC2)N[C@@H](Cc1cc(F)cc(F)c1)c1ncccc1-c1cccc(C(=O)N2CCOCC2)c1 [Example 424, (S)—N-(2-(3,5-difluorophenyl)-1-(3-(3-(morpholine-4-carbonyl)phenyl)pyridin-2-yl)ethyl)-2-(3-(trifluoromethyl)-4,5,6,7-tetrahydro-1H-indazol-1-yl)acetamide] gave an inhibition at 2 µM [1] of 78% and a CC50 at 5 days [2, 3] of 14200 nM.
COCc1cc(C(F)(F)F)nn1CC(=O)N[C@@H](Cc1cc(F)cc(F)c1)c1ncccc1-c1ccc(F)c(C(N)=O)c1 [Example 208D] showed an inhibition at 2 µM [1] of 2% and a CC50 at 5 days ([2]; human, CC50 (nM), uninfected MT-4 cells, same protocol as Test A, CellTiter-Glo) greater than 53200 nM.
In the case of O=C(Cc1n[nH]c2ccccc12)NC(Cc1cc(F)cc(F)c1)c1nccnc1-c1ccc(Cl)cc1 (centres unmarked) [Example 447, N-(1-(3-(4-chlorophenyl)pyrazin-2-yl)-2-(3,5-difluorophenyl)ethyl)-2-(1H-indazol-3-yl)acetamide], the inhibition at 2 µM [1] is reported as 0% and the CC50 at 5 days [2, 3] is reported as 13000 nM.
Work on NC(=O)c1cccc(-c2cccnc2[C@H](Cc2cc(F)cc(F)c2)NC(=O)Cn2cnc3ccccc32)c1 [Example 418, (S)-3-(2-(1-(2-(1H-benzo[d]imidazol-1-yl)acetamido)-2-(3,5-difluorophenyl)ethyl)pyridin-3-yl)benzamide] yielded an inhibition at 2 µM [1] of 19% and a CC50 at 5 days [2, 3] greater than 53200 nM.
NC(=O)c1cc(-c2ccc[n+]([O-])c2[C@H](Cc2cc(F)cc(F)c2)NC(=O)Cn2nc(C(F)(F)F)c3c2CS(=O)(=O)C3)ccc1F [Example 218, (S)-3-(3-carbamoyl-4-fluorophenyl)-2-(2-(3,5-difluorophenyl)-1-(2-(5,5-dioxido-3-(trifluoromethyl)-4,6-dihydro-1H-thieno[3,4-c]pyrazol-1-yl)acetamido)ethyl)pyridine 1-oxide] gave an inhibition at 2 µM [1] of 0% and a CC50 at 5 days [2, 3] greater than 53200 nM.
Compound COc1ccc(-c2cccnc2[C@H](Cc2ccccc2)NC(=O)Cn2nc(C(F)(F)F)c3c2CCCC3)cc1 [Example 21, (S)—N-(1-(3-(4-methoxyphenyl)pyridin-2-yl)-2-phenylethyl)-2-(3-(trifluoromethyl)-4,5,6,7-tetrahydro-1H-indazol-1-yl)acetamide] has an inhibition at 2 µM [1] of 28% and a CC50 at 5 days [2, 3] of 15500 nM.
NC(=O)c1cc(-c2cccnc2[C@H](Cc2cccc(F)c2)NC(=O)CC2C(=O)Nc3ccc(F)cc32)ccc1F (stereo partly drawn) [Example 253, 2-fluoro-5-(2-((1S)-1-(2-(5-fluoro-2-oxoindolin-3-yl)acetamido)-2-(3-fluorophenyl)ethyl)pyridin-3-yl)benzamide] showed an inhibition at 2 µM [1] of 27% and a CC50 at 5 days [2, 3] greater than 53200 nM.
NC(=O)c1cc(-c2cccnc2[C@H](Cc2cc(F)cc(F)c2)NC(=O)Cn2nc(C(F)(F)F)c3c2CC2C3C2(F)F)ccc1F (stereo partly drawn) [Example 199E, 5-(2-((1S)-1-(2-(4,4-difluoro-3-(trifluoromethyl)-3b,4,4a,5-tetrahydro-1H-cyclopropa[3,4]cyclopenta[1,2-c]pyrazol-1-yl)acetamido)-2-(3,5-difluorophenyl)ethyl)pyridin-3-yl)-2-fluorobenzamide] showed an inhibition at 2 µM [1] of 18% and a CC50 at 5 days [2, 3] of 9520 nM.
In the case of Cc1cc2cc(F)ccc2n1CC(=O)N[C@@H](Cc1cc(F)cc(F)c1)c1ncccc1-c1cccc(C(N)=O)c1 [Example 575B, (S)-3-(2-(2-(3,5-difluorophenyl)-1-(2-(5-fluoro-2-methyl-1H-indol-1-yl)acetamido)ethyl)pyridin-3-yl)benzamide], the inhibition at 2 µM [1] is reported as 14% and the CC50 at 5 days [2, 3] is reported as 17400 nM.
With CC(C)c1cc(C(C)C)n(CC(=O)N[C@@H](Cc2cc(F)cc(F)c2)c2ncccc2-c2ccc(F)c(C(N)=O)c2)n1 [Example 538, (S)-5-(2-(2-(3,5-difluorophenyl)-1-(2-(3,5-diisopropyl-1H-pyrazol-1-yl)acetamido)ethyl)pyridin-3-yl)-2-fluorobenzamide] the inhibition at 2 µM [1] was 14% and the CC50 at 5 days [2, 3] was 23300 nM.
CNCc1cn(CC(=O)N[C@@H](Cc2cc(F)cc(F)c2)c2ncccc2-c2ccc(F)c(C(N)=O)c2)nc1C(F)(F)F [Example 333, (S)-5-(2-(2-(3,5-difluorophenyl)-1-(2-(4-((methylamino)methyl)-3-(trifluoromethyl)-1H-pyrazol-1-yl)acetamido)ethyl)pyridin-3-yl)-2-fluorobenzamide] showed an inhibition at 2 µM [1] of 2% and a CC50 at 5 days [2, 3] greater than 53200 nM.
For CCNCc1cn(CC(=O)N[C@@H](Cc2cc(F)cc(F)c2)c2ncccc2-c2ccc(F)c(C(N)=O)c2)nc1C(F)(F)F [Example 314, (S)-5-(2-(2-(3,5-difluorophenyl)-1-(2-(4-((ethylamino)methyl)-3-(trifluoromethyl)-1H-pyrazol-1-yl)acetamido)ethyl)pyridin-3-yl)-2-fluorobenzamide], the inhibition at 2 µM [1] was 3% and the CC50 at 5 days [2, 3] was 23600 nM.
Compound O=C(Cc1c[nH]c2ccc(F)cc12)N[C@@H](Cc1cc(F)cc(F)c1)c1ncccc1-c1cccc(C(=O)NC2CC2)c1 [Example 66, (S)—N-cyclopropyl-3-(2-(2-(3,5-difluorophenyl)-1-(2-(5-fluoro-1H-indol-3-yl)acetamido)ethyl)pyridin-3-yl)benzamide] has an inhibition at 2 µM [1] of -2% and a CC50 at 5 days [2, 3] of 16800 nM.
